Results published in paper PMC6271036, “Antimalarial Evaluation of the Chemical Constituents of Hairy Root Culture of Bixa orellana L” (Molecules, 2014).
“Also recorded” adds a separate entry of the source.

Key:
[1] = test system: malaria strains 3D7 and K1; experiment: in vitro anti-plasmodium activity, strain not told apart; format: cell-based, Plasmodium falciparum
Method: (§1) The crude extract from culture medium and roots (compound 17), a combination of MeJA derivatives (compound 16), and its individual isolated components were tested in vitro for anti-plasmodium activity against malaria strains 3D7 and K1, as described in previously developed assays. Pure compounds were prepared as 10 mM or 2 mM stock solutions in DMSO.
Parasites were grown in Petri dishes in the presence of fresh group O-positive erythrocytes (hematocrit 4%–6%) in RPMI 1640 (pH 7.3) supplemented with 0.5% AlbuMAX II, 25 mM HEPES, 25 mM NaHCO3, 100 μg/mL hypoxanthine, and 5 μg/mL gentamycin. Cultures were incubated at 37 °C with 5% O2 and 5% CO2. Compounds were prepared as 10 mM stock solutions in DMSO (except compound 18) to measure EC50. The stock solutions were plated in 384-well plates, serially diluted (1:3) in DMSO. Compounds were then transferred to a 384-well assay plate containing 20 μL of RPMI 1640 with 5 μg/mL gentamycin by using a 384-head pin tool. Twenty μL of a synchronized culture suspension (1% rings, 4% hematocrit) was added to each well (final hematocrit and parasitemia, of 2% and 1%, respectively). The final DMSO concentration was 0.65%. Assay plates were incubated for 72 h and parasitemia was measured by using a previously described DNA stain-based assay. The MAR3D7 growth inhibition assay was used for the chloroquine-sensitive 3D7 strain of P. falciparum, and quantified growth by using DNA dyes. The experiment required a total of 96 h, including a 72 h incubation with test compounds. Positive controls were chloroquine and mefloquine. The MARK1 growth inhibition assay was used for the K1 strain of P. falciparum, known to be resistant to both chloroquine and pyrimethamine due to expression of the chloroquine resistance transporter and upregulation of the multi-drug resistance efflux pump. Growth was quantitated by using DNA dyes. The experiment required a total of 96 h, including a 72 h incubation with test compounds. Positive controls were chloroquine and mefloquine.

[2] = test system: W2 strain of P. falciparum; parameters: method as in earlier work; conditions: 15 mg/Kg, mice; cited from earlier work
[3] = test system: chloroquine-sensitive 3D7 strain of P. falciparum; experiment: MAR3D7 growth inhibition assay (DNA dye); format: cell-based, Plasmodium falciparum; conditions: 72 h incubation
Method: as §1
(§2) Parasites were grown in Petri dishes in the presence of fresh group O-positive erythrocytes (hematocrit 4%–6%) in RPMI 1640 (pH 7.3) supplemented with 0.5% AlbuMAX II, 25 mM HEPES, 25 mM NaHCO3, 100 μg/mL hypoxanthine, and 5 μg/mL gentamycin. Cultures were incubated at 37 °C with 5% O2 and 5% CO2. Compounds were prepared as 10 mM stock solutions in DMSO (except compound 18) to measure EC50. The stock solutions were plated in 384-well plates, serially diluted (1:3) in DMSO. Compounds were then transferred to a 384-well assay plate containing 20 μL of RPMI 1640 with 5 μg/mL gentamycin by using a 384-head pin tool. […] Assay plates were incubated for 72 h and parasitemia was measured by using a previously described DNA stain-based assay. The MAR3D7 growth inhibition assay was used for the chloroquine-sensitive 3D7 strain of P. falciparum, and quantified growth by using DNA dyes. […] Growth was quantitated by using DNA dyes. […]

[4] = test system: K1 strain of P. falciparum; experiment: MARK1 growth inhibition assay (DNA dye); format: cell-based, Plasmodium falciparum; conditions: 72 h incubation
Method: as §1, §2

Row | Compound | antimalarial activity (in words) [1] | in vivo antimalarial activity [2] | EC50 [3] [µM] | EC50 [4] [µM]
1 | C[C@H]1CCC[C@@]23CC4C(C[C@]12C)C4(C)C3 [Compound 1, (2aS,6S,6aR)-1,6,6a-trimethyldecahydro-1,2a-methanocyclopropa[b]naphthalene] | promising antimalarial activity |  |  | 
2 | CC(C)=CCC/C(C)=C/CC/C(C)=C/CC[C@]1(C)CCc2cc(O)cc(C)c2O1 [Compound 3, δ-tocotrienol] | promising antimalarial activity |  |  | 
3 | CC[C@H](CC[C@@H](C)[C@H]1CC[C@H]2[C@@H]3CC=C4C[C@@H](O)CC[C@]4(C)[C@H]3CC[C@]12C)C(C)C [Compound 6, β-sitosterol] |  | active |  | 
4 | C[C@@H]1CC[C@]2(C(=O)O)CC[C@]3(C)C(=CC[C@@H]4[C@@]5(C)C[C@@H](O)[C@H](O)C(C)(C)[C@@H]5CC[C@]43C)[C@@H]2[C@]1(C)O [tormentic acid, reference compound] |  | active |  | 
5 | (3S,9S,10S,13R,17R)-17-((2R,5S,E)-5-ethyl-6-methylhept-3-en-2-yl)-9,10,13-trimethyl-2,3,4,7,8,9,10,11,12,13,14,15,16,17-tetradecahydro-1H-cyclopenta[a]phenanthren-3-ol [Compound 5] | promising antimalarial activity; also recorded: most potent compound lead |  | 3 | 5
